Experiments:
[1] = target: T1, Mitogen-activated protein kinase kinase kinase 5 (Homo sapiens, UniProt Q99683); test: Inhibition of ASK1 (unknown origin) incubated for 2 hrs
T1 sequence (Q99683 whole entry): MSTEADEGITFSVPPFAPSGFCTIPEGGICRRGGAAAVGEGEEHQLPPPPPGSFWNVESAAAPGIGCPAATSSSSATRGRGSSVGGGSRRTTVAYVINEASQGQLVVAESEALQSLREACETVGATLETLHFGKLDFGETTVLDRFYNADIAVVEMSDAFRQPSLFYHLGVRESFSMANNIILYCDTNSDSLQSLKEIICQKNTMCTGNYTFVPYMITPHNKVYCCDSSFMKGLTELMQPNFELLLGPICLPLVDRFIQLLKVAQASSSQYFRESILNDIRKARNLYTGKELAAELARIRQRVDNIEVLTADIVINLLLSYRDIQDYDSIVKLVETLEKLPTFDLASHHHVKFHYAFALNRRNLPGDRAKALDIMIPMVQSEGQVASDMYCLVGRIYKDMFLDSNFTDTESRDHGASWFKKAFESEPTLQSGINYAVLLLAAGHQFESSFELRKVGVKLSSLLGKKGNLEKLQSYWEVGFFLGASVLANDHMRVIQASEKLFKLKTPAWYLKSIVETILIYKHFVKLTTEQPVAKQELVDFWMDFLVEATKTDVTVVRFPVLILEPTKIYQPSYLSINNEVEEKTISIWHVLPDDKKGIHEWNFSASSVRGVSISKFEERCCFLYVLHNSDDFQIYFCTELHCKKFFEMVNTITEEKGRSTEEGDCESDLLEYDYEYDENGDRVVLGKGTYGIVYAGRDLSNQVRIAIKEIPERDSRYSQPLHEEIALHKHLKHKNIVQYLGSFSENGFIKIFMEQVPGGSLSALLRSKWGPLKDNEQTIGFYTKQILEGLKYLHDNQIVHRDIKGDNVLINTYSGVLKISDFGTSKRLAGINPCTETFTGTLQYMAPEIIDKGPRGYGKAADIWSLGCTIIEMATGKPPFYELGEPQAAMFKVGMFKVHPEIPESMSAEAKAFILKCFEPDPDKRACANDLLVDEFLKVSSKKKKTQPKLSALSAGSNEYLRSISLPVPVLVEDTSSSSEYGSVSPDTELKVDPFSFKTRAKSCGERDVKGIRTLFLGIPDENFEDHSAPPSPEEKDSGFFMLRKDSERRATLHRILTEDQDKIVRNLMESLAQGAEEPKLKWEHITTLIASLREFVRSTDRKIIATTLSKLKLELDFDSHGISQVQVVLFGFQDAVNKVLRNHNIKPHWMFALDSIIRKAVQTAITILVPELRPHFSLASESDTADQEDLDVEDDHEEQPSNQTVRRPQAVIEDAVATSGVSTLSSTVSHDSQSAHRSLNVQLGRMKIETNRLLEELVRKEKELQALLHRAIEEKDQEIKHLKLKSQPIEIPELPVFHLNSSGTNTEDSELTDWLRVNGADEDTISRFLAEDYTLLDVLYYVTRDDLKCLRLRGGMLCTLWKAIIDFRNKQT

[2] = target: T1, Mitogen-activated protein kinase kinase kinase 5; test: Inhibition of ASK1 phosphorylation in HEK293T cells incubated for 1 hr; type: cell-based
[3] = Unbound brain-to-plasma concentration ratio in rat at 1 mg/kg, iv by LC-MS/MS analysis; type: ADME, organism-based; details: brain and plasma, read-out: K(p,uu,brain)
Rattus norvegicus [4] = species on record: Rattus norvegicus; test: Antifibrotic activity CDHFD-NaNO2 rat model; type: functional
Rattus norvegicus [5] = species on record: Rattus norvegicus; test: Antifibrotic activity CDHFD-NaNO2 rat model assessed as effect on hydroxyproline level; type: functional
[6] = Oral bioavailability in Sprague-Dawley rat at 1 mg/kg by LC-MS/MS analysis; type: ADME, organism-based; details: in vivo
[7] = target: T1, Mitogen-activated protein kinase kinase kinase 5; test: Inhibition of ASK1 in HEK293 cells; type: cell-based
[8] = Efflux ratio of apparent permeability across basolateral to apical side over apical to basolateral side in human Caco2 cells by LC-MS/MS analysis; type: ADME, cell-based; details: Caco-2
[9] = Apparent permeability of compound across apical to basolateral side in human Caco2 cells; type: ADME, cell-based; details: Caco-2
[10] = Half life in Sprague-Dawley rat at 1 mg/kg, iv by LC-MS/MS analysis; type: ADME, organism-based; details: in vivo
[11] = target: T1, Mitogen-activated protein kinase kinase kinase 5; test: Inhibition of full length GST-tagged recombinant human ASK1 using MBP as substrate incubated for 20 mins
[12] = target: T1, Mitogen-activated protein kinase kinase kinase 5; test: Inhibition of full length GST-tagged recombinant human ASK1 using MBP as substrate incubated for 20 mins by cell based assay

C[C@H]1CCCOc2ncc(-c3ccncc3)cc2C(=O)Nc2cccc(n2)-c2nncn21
IC50 [1]: ≤ 100 nM | IC50 [2]: ≤ 100 nM | Kp uu [3]: ≥ 0.1

Cc1cc(F)c(C(=O)Nc2cccc(-c3nncn3C(C)C)n2)cc1-n1cnc(C2CC2)c1 [SELONSERTIB]
Activity (Rattus norvegicus [4]): 28% | Activity (Rattus norvegicus [5]): 6% | bioavailability [6]: 75%

Cc1ccc(C(=O)Nc2cccc(-c3nncn3C(C)C)n2)cc1-n1cnc(C2CC2)c1
EC50 [7]: 18 nM | efflux ratio [8]: 15.4 | Papp A→B [9]: 0.26 ×10⁻⁶ cm/s | half-life [10]: 1.2 h | bioavailability [6]: 50%

Cc1cc(F)c(C(=O)Nc2cccc(-c3nnc4n3CCCC4)n2)cc1-n1nnc(C2CC2)n1
IC50 [11]: > 1000 nM | IC50 [12]: > 100 nM

Source: ChEMBL document CHEMBL5512601, “Small-molecule inhibitors targeting apoptosis signal-regulated kinase 1” (Eur J Med Chem, 2023)
